Key:
[1] = target: T1, Amine oxidase [flavin-containing] A (Homo sapiens, UniProt P21397); assay: Inhibition of human MAO-A using p-tyramine as substrate at 10 uM incubated for 15 mins by Amplex red and horseradish peroxidase based fluorescence assay; details: 0.25 h
T1 sequence (P21397 whole entry): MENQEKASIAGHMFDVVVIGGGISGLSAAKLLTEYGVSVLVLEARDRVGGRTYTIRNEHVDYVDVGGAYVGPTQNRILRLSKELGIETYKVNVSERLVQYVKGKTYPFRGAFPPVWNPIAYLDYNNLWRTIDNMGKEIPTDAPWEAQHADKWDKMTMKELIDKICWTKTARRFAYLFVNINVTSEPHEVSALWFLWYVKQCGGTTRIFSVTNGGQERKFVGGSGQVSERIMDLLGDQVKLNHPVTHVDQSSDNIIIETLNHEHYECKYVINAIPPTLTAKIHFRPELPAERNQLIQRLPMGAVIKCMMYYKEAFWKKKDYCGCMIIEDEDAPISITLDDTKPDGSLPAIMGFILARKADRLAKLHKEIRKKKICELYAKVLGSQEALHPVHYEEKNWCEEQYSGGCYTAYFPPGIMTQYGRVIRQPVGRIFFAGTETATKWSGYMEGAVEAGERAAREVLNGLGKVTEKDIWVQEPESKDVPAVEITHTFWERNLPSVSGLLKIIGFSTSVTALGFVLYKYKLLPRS

[2] = target: T2, Amine oxidase [flavin-containing] B (Homo sapiens, UniProt P27338); assay: Inhibition of human MAO-B using p-tyramine as substrate incubated for 15 mins by Amplex red and horseradish peroxidase based fluorescence assay
T2 sequence (P27338 whole entry): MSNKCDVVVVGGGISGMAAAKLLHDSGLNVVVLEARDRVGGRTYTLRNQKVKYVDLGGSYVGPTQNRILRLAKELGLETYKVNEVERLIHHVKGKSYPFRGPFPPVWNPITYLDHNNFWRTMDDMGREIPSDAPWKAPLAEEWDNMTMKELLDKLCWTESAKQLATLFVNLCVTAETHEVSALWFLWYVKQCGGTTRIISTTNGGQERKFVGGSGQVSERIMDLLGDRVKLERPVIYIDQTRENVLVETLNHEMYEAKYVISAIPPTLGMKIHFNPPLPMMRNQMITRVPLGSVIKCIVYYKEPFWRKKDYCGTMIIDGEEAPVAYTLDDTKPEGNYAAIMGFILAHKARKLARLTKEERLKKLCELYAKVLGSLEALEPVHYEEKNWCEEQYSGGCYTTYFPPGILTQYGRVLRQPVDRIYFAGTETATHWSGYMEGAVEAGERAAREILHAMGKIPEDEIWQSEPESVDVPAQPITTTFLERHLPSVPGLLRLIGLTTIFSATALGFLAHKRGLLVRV

Homo sapiens = organism: Homo sapiens; assay: Selectivity index, ratio of IC50 for human MAO-A to IC50 for human MAO-B
[3] = Cytotoxicity against human SH-SY5Y cells assessed as cell viability by measuring metabolic activity upto 10 uM incubated for 24 hrs by resazurin dye based assay relative to control; assay type: toxicity; details: read-out: Activity
[4] = Cytotoxicity against human SH-SY5Y cells assessed as cell viability by measuring lysosomal activity upto 10 uM incubated for 24 hrs by neutral red uptake assay relative to control; assay type: toxicity, cell-based; details: read-out: Activity
SH-SY5Y [5] = assay: Iron(III) chelating activity in FeNTA-treated human SH-SY5Y cells assessed as cell viability by measuring lysosomal activity at 10 uM measured after 24 hrs by neutral red uptake assay (reference value: 66.5 +/- […] %); assay type: cell-based
SH-SY5Y [6] = assay: Iron(III) chelating activity in FeNTA-treated human SH-SY5Y cells assessed as cell viability by measuring lysosomal activity at 1 to 10 uM measured after 24 hrs by neutral red uptake assay (reference value: 66.5 +/- […] %); assay type: cell-based; details: dose 1-10 µM
[7] = target: T2, Amine oxidase [flavin-containing] B; assay: Inhibition of human MAO-B using p-tyramine as substrate at 10 uM incubated for 15 mins by Amplex red and horseradish peroxidase based fluorescence assay; details: 0.25 h
[8] = target: T1, Amine oxidase [flavin-containing] A; assay: Inhibition of human MAO-A using p-tyramine as substrate incubated for 15 mins by Amplex red and horseradish peroxidase based fluorescence assay
[9] = target: T3, MAO-A (amine oxidase [flavin-containing] A) (Homo sapiens, UniProt P21397); assay: Inhibition of human MAO-A using p-tyramine as substrate incubated for 15 mins by Amplex red and horseradish peroxidase based fluorescence assay relative to control; details: human MAO-A enzyme, probe p-tyramine
T3 sequence (P21397 whole entry): T1 sequence (P21397 whole entry)

| inhibition (INH) [1] | IC50 [2] [nM] | Ratio IC50 (Homo sapiens) | SMILES | further results |
| --- | --- | --- | --- | --- |
| Not Active | 28.4 | > 352 | COc1ccc2occ(C(=O)Nc3ccc(C)c(C)c3)c(=O)c2c1 |  |
| Not Active | 13 | > 769 | O=C(Nc1ccccc1)c1coc2cccc(O)c2c1=O | viability at 24 h, up to 10 µM [3]: ≥ 94.4%; viability at 24 h, up to 10 µM [4]: ≥ 94.4%; Activity (SH-SY5Y [5]): 74.4% |
| Not Active | 15.4 | > 649 | Cc1ccc(NC(=O)c2coc3cccc(O)c3c2=O)cc1C | viability at 24 h, up to 10 µM [3]: ≥ 94.4%; viability at 24 h, up to 10 µM [4]: ≥ 94.4%; Activity (SH-SY5Y [6]): 74.4% |
| Not Active |  |  | COc1ccc2oc(C(=O)Nc3ccc(C)c(C)c3)cc(=O)c2c1 | inhibition (INH) [7]: Not Active |
| Not Active |  | > 970 | COc1ccc2occ(C(=O)Nc3ccc(Cl)cc3)c(=O)c2c1 | viability at 24 h, up to 10 µM [3]: ≥ 94.4%; viability at 24 h, up to 10 µM [4]: ≥ 94.4% |
| Not Active |  |  | COc1ccc2oc(C(=O)Nc3ccc(Cl)cc3)cc(=O)c2c1 | inhibition (INH) [7]: Not Active |
|  | 68.9 | 130 | O=C(Nc1cccc(Cl)c1)c1cc(=O)c2cc(O)ccc2o1 | IC50 [8]: 9000 nM |
| Not Active | 14.3 | > 700 | O=C(Nc1ccc(Cl)cc1)c1cc(=O)c2cc(O)ccc2o1 | viability at 24 h, up to 10 µM [3]: ≥ 94.4%; viability at 24 h, up to 10 µM [4]: ≥ 94.4% |
|  | 97.2 | 64 | O=C(Nc1ccc(Cl)cc1)c1coc2ccc(O)cc2c1=O | IC50 [8]: 6190 nM |
| Not Active | 598 | > 17 | O=C(Nc1ccc(O)cc1)c1coc2cccc(O)c2c1=O |  |
| Not Active |  |  | COc1ccc2oc(C(=O)Nc3ccccc3)cc(=O)c2c1 | inhibition (INH) [7]: Not Active |
| Not Active | 4830 | > 2.1 | O=C(Nc1ccc(O)cc1)c1coc2ccc(O)cc2c1=O |  |
| Not Active |  |  | COc1ccc2oc(C(=O)Nc3ccc(O)cc3)cc(=O)c2c1 | inhibition (INH) [7]: Not Active |
| Not Active | 1030 | > 9.7 | O=C(Nc1ccc(O)cc1)c1cc(=O)c2cc(O)ccc2o1 |  |
| Not Active |  | > 239 | COc1ccc2occ(C(=O)Nc3ccccc3)c(=O)c2c1 |  |
| Not Active | 8.3 | > 1200 | O=C(Nc1ccc(Cl)cc1)c1coc2cccc(O)c2c1=O | viability at 24 h, up to 10 µM [3]: ≥ 94.4%; viability at 24 h, up to 10 µM [4]: ≥ 94.4%; Activity (SH-SY5Y [6]): 74.4% |

| inhibition (INH) [1] | IC50 [2] [nM] | Ratio IC50 (Homo sapiens) | SMILES | further results |
| --- | --- | --- | --- | --- |
|  | 29.1 | 116 | Cc1ccc(NC(=O)c2cc(=O)c3cc(O)ccc3o2)cc1C | IC50 [8]: 3370 nM |
| Not Active | 55.1 | > 181 | Cc1ccc(NC(=O)c2cc(=O)c3cc(O)ccc3o2)cc1 |  |
|  |  | > 0.061 | COc1ccc2oc(C(=O)Nc3ccc(C)cc3)cc(=O)c2c1 | inhibition (INH) [7]: Not Active; IC50 [8]: 607 nM |
|  |  |  | C[C@H](NCc1ccc(OCc2cccc(F)c2)cc1)C(N)=O [SAFINAMIDE] | inhibition at 0.25 h [9]: 23.7% |
| Not Active |  |  | COc1ccc2oc(C(=O)Nc3cccc(Cl)c3)cc(=O)c2c1 | inhibition (INH) [7]: Not Active |
| Not Active |  | > 48 | COc1ccc2occ(C(=O)Nc3ccc(C)cc3)c(=O)c2c1 |  |
| Not Active |  | > 15 | COc1ccc2occ(C(=O)Nc3ccc(O)cc3)c(=O)c2c1 |  |
| Not Active | 6.8 | > 1470 | COc1ccc2occ(C(=O)Nc3cccc(Cl)c3)c(=O)c2c1 | viability at 24 h, up to 10 µM [3]: ≥ 94.4%; viability at 24 h, up to 10 µM [4]: ≥ 94.4% |
| Not Active | 240 | > 42 | O=C(Nc1ccccc1)c1coc2ccc(O)cc2c1=O |  |
| Not Active | 29.8 | > 336 | O=C(Nc1cccc(Cl)c1)c1coc2ccc(O)cc2c1=O |  |
| Not Active | 262 | > 38 | Cc1ccc(NC(=O)c2coc3ccc(O)cc3c2=O)cc1C |  |
| Not Active | 25 | > 400 | O=C(Nc1cccc(Cl)c1)c1coc2cccc(O)c2c1=O | viability at 24 h, up to 10 µM [3]: ≥ 94.4%; viability at 24 h, up to 10 µM [4]: ≥ 94.4%; Activity (SH-SY5Y [6]): 74.4% |
| Not Active | 31.3 | > 319 | O=C(Nc1ccccc1)c1cc(=O)c2cc(O)ccc2o1 |  |
| Not Active | 344 | > 29 | Cc1ccc(NC(=O)c2coc3ccc(O)cc3c2=O)cc1 |  |
| Not Active | 15.7 | > 637 | Cc1ccc(NC(=O)c2coc3cccc(O)c3c2=O)cc1 | viability at 24 h, up to 10 µM [3]: ≥ 94.4%; viability at 24 h, up to 10 µM [4]: ≥ 94.4%; Activity (SH-SY5Y [6]): 74.4% |
